Data set [1] is described as follows: Optical properties (absorption, emission, extinction coefficient) of BDP635 and derivative SBDPiRs. It is filed as physicochemical.
Data set [2] relates to BALB/c mice bearing colon-26 cells (mouse colon carcinoma cells). Kind of data set: In vivo imaging with SBDPiR790. The following applies: 2.5 μmol/kg i.p. As for the experimental part: Female Balb/c mice were purchased from NCI (Federick, Md.). Mice were housed and handled in the College of Pharmacy animal facility, University of Oklahoma Health Sciences Center, Oklahoma City, Okla. All animal experiments were approved by IACUC, University of Oklahoma Health Sciences Center (personal approval was offered). Injection solution of SBDPiR790 was prepared by solubilizing it in DMSO (4 mM), and then it was diluted with 1% Tween 80-5% dextrose solution (PBS). The solution was filtered through a 0.2 μm sterile syringe filter before i.p. injection.
BALB/c mice bearing colon-26 cells (mouse colon carcinoma cells) were used for this study. 6-8 week old Balb/c mice were shaved and depilated with hair removal cream (Nair) at the upper back. The mice were subcutaneously inoculated with colon 26 cells at the neck region with […] in 0.1 ml PBS solution. Tumors with 4-6 mm diameter size were made in a week. The in vivo Xtreme imaging system (Carestream Health, Inc.) was used in acquiring images as mice were kept under safe anaesthesia using Isoflurane. The instrumental conditions for the imaging were as follows: fluorescence mode with excitation 760 nm and emission 830 nm; exposure time 5 sec; F/stop: 2 and pixel 2×2. Images collected were then processed using the Carestream MI imaging software to equally adjusted minima and maxima scale.
All mice received 2.5 μmol/kg of SBDPiR790 (MW=636.11 g/mol) solution in PBS (0.2 ml) via i.p. injection. Images were taken at 0 (before), 15 minutes, 3, 6, and 24 hours postinjection. […] Particularly SBDPiR790 can be a practical alternative to the sole clinically approved NIR probe, ICG. The stability, and excellent photophysical properties of SBDPiR790 and its lipophilic character make it useful for varied applications including cancer diagnosis and neurological imaging taking advantage of its ability to cross the blood-brain barrier.

The source of these data is patent US9611281B2, “BODIPY derivatives and methods of synthesis and use thereof” (The Board of Regents of the University of Oklahoma, priority 2013, dated 2017).

In data set [1], “2,8-Di(bromo)-11-trifluoromethyl-dithieno[2,3-b]-[3,2-g]-5,5-difluoro-5-bora-3a,4a-dithio-s-indacene [BDP635]” yielded a λabs of 635 nm and a λflu of 650 nm.

On to `COC(=O)c1ccc(C2=C3C=c4sc(-c5ccc(OC)cc5)cc4=[N+]3[B-](F)(F)n3c2cc2sc(-c4ccc(OC)cc4)cc23)cc1` [Compound 50, 2,8-Di(4-Methoxy-phenyl)-11-benzoic acid methyl ester-dithieno[2,3-b]-[3,2-g]-5,5-difluoro-5-bora-3a,4a-diaza-s-indacene], for which the fluorescence entry in data set [1] is reported as “relatively low fluorescence”. In data set [1] (in CHCl3), the 0-0 absorption turned out to be 685 nm and the molar extinction coefficient was 85 000 M^−1 cm^−1.

Turning to `F[B-]1(F)n2c(cc3sc(Oc4ccc(-c5ccccc5)cc4)cc32)C(C(F)(F)F)=C2C=c3sc(Oc4ccc(-c5ccccc5)cc4)cc3=[N+]21` [SBDPiR650, 2,8-Di(biphenyl-4-yloxy)-11-trifluoromethyl-dithieno[2,3-b]-[3,2-g]-5,5-difluoro-5-bora-3a,4a-diaza-s-indacene], in data set [1], the ε is 83 000 M^−1 cm^−1, the λabs is 649 nm and the λflu amounted to 660 nm.

For the compound `COc1ccc(Oc2cc3c(s2)=CC2=C(C(F)(F)F)c4cc5sc(Oc6ccc(OC)cc6)cc5n4[B-](F)(F)[N+]=32)cc1` [SBDPiR650_OMe, 2,8-Di(4-methoxyphenoxy)-11-trifluoromethyl-dithieno[2,3-b]-[3,2-g]-5,5-difluoro-5-bora-3a,4a-diaza-s-indacene], in data set [1], the ε is recorded as 118 000 M^−1 cm^−1, the λabs amounted to 649 nm and the λflu stood at 660 nm.

As for `F[B-]1(F)n2c(cc3sc(Sc4ccccc4)cc32)C(C(F)(F)F)=C2C=c3sc(Sc4ccccc4)cc3=[N+]21` [SBDPiR700, 2,8-Di(thiophenoxy)-11-trifluoromethyl-dithieno[2,3-b]-[3,2-g]-5,5-difluoro-5-bora-3a,4a-diaza-s-indacene], in data set [1], the ε is listed as 105 000 M^−1 cm^−1, the λabs is listed as 694 nm and the λflu was 715 nm.

Consider `COc1cc(-c2cc3c(s2)=CC2=C(C(F)(F)F)c4cc5sc(-c6cc(OC)c(OC)c(OC)c6)cc5n4[B-](F)(F)[N+]=32)cc(OC)c1OC` [SBDPiR730, 2,8-Di(3,4,5-trimethoxyphenyl)-11-trifluoromethyl-dithieno[2,3-b]-[3,2-g]-5,5-difluoro-5-bora-3a,4a-diaza-s-indacene], for which, in data set [1], the ε is given as 140 000 M^−1 cm^−1, the λabs amounted to 728 nm and the λflu came to 761 nm.

Turning to `COc1ccc(-c2cc3c(s2)=CC2=C(C(F)(F)F)c4cc5sc(-c6ccc(OC)cc6)cc5n4[B-](F)(F)[N+]=32)cc1` [SBDPiR731, 2,8-Di(4-methoxyphenyl)-11-trifluoromethyl-dithieno[2,3-b]-[3,2-g]-5,5-difluoro-5-bora-3a,4a-diaza-s-indacene], in data set [1], the ε is recorded as 185 000 M^−1 cm^−1, the λabs is recorded as 731 nm and the λflu came to 755 nm.

As for `F[B-]1(F)n2c(cc3sc(-c4cccs4)cc32)C(C(F)(F)F)=C2C=c3sc(-c4cccs4)cc3=[N+]21` [SBDPiR735, 2,8-Di(thiophenyl)-11-trifluoromethyl-dithieno[2,3-b]-[3,2-g]-5,5-difluoro-5-bora-3a,4a-diaza-s-indacene], in data set [1], the ε was 125 000 M^−1 cm^−1, the λabs worked out at 733 nm and the λflu turned out to be 763 nm.

Turning to `Oc1ccc(-c2cc3c(s2)=CC2=C(C(F)(F)F)c4cc5sc(-c6ccc(O)cc6)cc5n4[B-](F)(F)[N+]=32)cc1` [SBDPiR740, 2,8-Di(4-hydroxyphenyl)-11-trifluoromethyl-dithieno[2,3-b]-[3,2-g]-5,5-difluoro-5-bora-3a,4a-diaza-s-indacene], in data set [1], the ε is recorded as 101 000 M^−1 cm^−1, the λabs amounted to 738 nm and the λflu is listed as 763 nm.

Consider `F[B-]1(F)n2c(cc3sc(C=Cc4ccccc4)cc32)C(C(F)(F)F)=C2C=c3sc(C=Cc4ccccc4)cc3=[N+]21` [SBDPiR755, 2,8-Di(styryl)-11-trifluoromethyl-dithieno[2,3-b]-[3,2-g]-5,5-difluoro-5-bora-3a,4a-diaza-s-indacene], for which, in data set [1], the ε is recorded as 110 000 M^−1 cm^−1, the λabs is 753 nm and the λflu came to 785 nm.

With `COc1ccc(C=Cc2cc3c(s2)=CC2=C(C(F)(F)F)c4cc5sc(C=Cc6ccc(OC)cc6)cc5n4[B-](F)(F)[N+]=32)cc1` [SBDPiR790, 2,8-Di(4-(methoxy-phenyl)vinyl)-11-trifluoromethyl-dithieno[2,3-b]-[3,2-g]-5,5-difluoro-5-bora-3a,4a-diaza-s-indacene], the ε in data set [1] is reported as 85 000 M^−1 cm^−1. The λabs in data set [1] came to 786 nm. Further, the “in vivo fluorescence emission image” value in data set [2] (15 minutes postinjection, ex 760 nm / em 830 nm) was “most of the dye still remained in the peritoneal cavity”; in data set [2] (3 hours postinjection), “all skin area showed relatively bright emission with intense bright spots in mid-body”; in data set [2] (6 hours postinjection) it was “an intense emission was observed in the tumor area”; in data set [2] (24 hours postinjection), “brighter emission was observed at the tumor site than other body”.

In data set [1], `CN(C)c1ccc(-c2cc3c(s2)=CC2=C(C(F)(F)F)c4cc5sc(-c6ccc(N(C)C)cc6)cc5n4[B-](F)(F)[N+]=32)cc1` [SBDPiR840, 2,8-Di(4-N,N,dimethylaminophenyl)-11-trifluoromethyl-dithieno[2,3-b]-[3,2-g]-5,5-difluoro-5-bora-3a,4a-diaza-s-indacene] displayed a λabs of 841 nm.
